Laboratory results: patent publication US7585859B2, “PDE4B inhibitors and uses therefor” (Plexxikon, Inc., priority 2004, dated 2009)

Columns and labels:
[1] = molecular target: T1, PDE4B: The catalytic domain of human PDE4B from S152-S528 (Homo sapiens, UniProt Q07343); assay: PDE4 IC50 determination by Scintillation Proximity Assay, PDE4B; assay type: biochemical; settings: Table 1B, Formula I compounds; read-out: IC50 PDE4B
T1 construct: His6 (N); thrombin cleavage site (N); made in house; host or cells: E. coli
Procedure, shortened: (§1)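 Radiometric SPA: PDE4B (80 ng/ml) or PDE4D (4 ng/ml) hydrolysed [^3H]cAMP over 30 min at 30°, and the bead-bound [^3H]AMP was scintillation-counted.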

PDE4D = molecular target: T2, PDE4D (Homo sapiens, UniProt Q08499); assay: PDE4 IC50 determination by Scintillation Proximity Assay, PDE4D; assay type: biochemical; settings: Table 1B, Formula I compounds; read-out: IC50 PDE4D
T2 construct: PDE4D: The catalytic domain of human PDE4B from S3 16-V692; His6 (N); thrombin cleavage site (N); made in house; host or cells: E. coli
Procedure, shortened: as §1

T1 sequence (Q07343 with tags, fused parts or gaps): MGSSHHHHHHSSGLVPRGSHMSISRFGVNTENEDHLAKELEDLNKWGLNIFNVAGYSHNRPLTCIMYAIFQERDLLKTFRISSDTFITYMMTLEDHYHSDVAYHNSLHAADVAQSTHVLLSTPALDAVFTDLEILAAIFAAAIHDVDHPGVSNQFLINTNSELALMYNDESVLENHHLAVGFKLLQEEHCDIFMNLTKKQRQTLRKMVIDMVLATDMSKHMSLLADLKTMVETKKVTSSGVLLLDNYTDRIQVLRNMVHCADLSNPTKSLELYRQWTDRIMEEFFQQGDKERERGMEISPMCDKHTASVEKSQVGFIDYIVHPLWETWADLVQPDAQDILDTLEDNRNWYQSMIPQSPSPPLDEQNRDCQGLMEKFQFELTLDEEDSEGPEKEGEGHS
T2 sequence (Q08499 380-756): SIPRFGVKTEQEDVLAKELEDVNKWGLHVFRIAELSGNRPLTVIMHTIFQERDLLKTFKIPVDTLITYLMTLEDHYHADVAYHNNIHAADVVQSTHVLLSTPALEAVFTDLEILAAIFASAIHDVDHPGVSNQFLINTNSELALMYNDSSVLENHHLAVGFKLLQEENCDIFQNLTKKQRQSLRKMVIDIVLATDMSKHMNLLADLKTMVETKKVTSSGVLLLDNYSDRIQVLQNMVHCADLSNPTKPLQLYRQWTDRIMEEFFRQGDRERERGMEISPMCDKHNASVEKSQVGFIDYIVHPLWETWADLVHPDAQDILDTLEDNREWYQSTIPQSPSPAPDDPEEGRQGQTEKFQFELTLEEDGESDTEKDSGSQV

| Structure (SMILES) | IC50 [1] | IC50 (PDE4D) |
| --- | --- | --- |
| COC(=O)C(CC(C)C)Nc1sc(C(=O)c2csc3ccccc23)c(N)c1C#N (stereo not drawn) [Compound 1-121, 2-[4-Amino-5-(benzo[b]thiophene-3-carbonyl)-3-cyano-thiophen-2-ylamino]-4-methyl-pentanoic acid methyl ester] | < 10 µM | < 10 µM |
| COC(=O)C(CCSC)Nc1sc(C(=O)c2csc3ccccc23)c(N)c1C#N (stereo not drawn) [Compound 1-122, 2-[4-Amino-5-(benzo[b]thiophene-3-carbonyl)-3-cyano-thiophen-2-ylamino]-4-methylsulfanyl-butyric acid methyl ester] | < 10 µM | < 10 µM |
| N#Cc1c(Nc2ccc(C(=O)NC3CCOC3=O)cc2)sc(C(=O)c2csc3ccccc23)c1N (stereo not drawn) [Compound 1-123, 4-[4-Amino-5-(benzo[b]thiophene-3-carbonyl)-3-cyano-thiophen-2-ylamino]-N-(2-oxo-tetrahydro-furan-3-yl)-benzamide] | < 10 µM | < 10 µM |
| N#Cc1c(NC2CCCC2)sc(C(=O)c2csc3ccccc23)c1N [Compound 1-124, 4-Amino-5-(benzo[b]thiophene-3-carbonyl)-2-cyclopentylamino-thiophene-3-carbonitrile] | < 10 µM | > 10 µM |
| COC(=O)c1ccccc1Nc1sc(C(=O)c2cnn(-c3ccccc3)c2C)c(N)c1C#N [Compound 1-126, 2-[4-Amino-3-cyano-5-(5-methyl-1-phenyl-1H-pyrazole-4-carbonyl)-thiophen-2-ylamino]-benzoic acid methyl ester] | < 10 µM | < 10 µM |
| Cc1c(C(=O)c2sc(Nc3ccc(C(=O)NC4CCOC4=O)cc3)c(C#N)c2N)cnn1-c1ccccc1 (stereo not drawn) [Compound 1-127, 4-[4-Amino-3-cyano-5-(5-methyl-1-phenyl-1H-pyrazole-4-carbonyl)-thiophen-2-ylamino]-N-(2-oxo-tetrahydro-furan-3-yl)-benzamide] | < 10 µM | < 10 µM |
| Cc1onc(-c2ccccc2)c1C(=O)c1sc(Nc2ccccc2F)c(C#N)c1N [Compound 1-128, 4-Amino-2-(2-fluoro-phenylamino)-5-(5-methyl-3-phenyl-isoxazole-4-carbonyl)-thiophene-3-carbonitrile] | < 10 µM | < 10 µM |
| COC(=O)C(CCSC)Nc1sc(C(=O)c2c(-c3ccccc3)noc2C)c(N)c1C#N (stereo not drawn) [Compound 1-131, 2-[4-Amino-3-cyano-5-(5-methyl-3-phenyl-isoxazole-4-carbonyl)-thiophen-2-ylamino]-4-methylsulfanyl-butyric acid methyl ester] | < 10 µM | > 10 µM |
| COc1ccc(CNc2sc(C(=O)c3c(-c4ccccc4)noc3C)c(N)c2C#N)cc1OC [Compound 1-132, 4-Amino-2-(3,4-dimethoxy-benzylamino)-5-(5-methyl-3-phenyl-isoxazole-4-carbonyl)-thiophene-3-carbonitrile] | < 10 µM | < 10 µM |
| Cc1onc(-c2ccccc2)c1C(=O)c1sc(Nc2ccc(C(=O)NC3CCOC3=O)cc2)c(C#N)c1N (stereo not drawn) [Compound 1-133, 4-[4-Amino-3-cyano-5-(5-methyl-3-phenyl-isoxazole-4-carbonyl)-thiophen-2-ylamino]-N-(2-oxo-tetrahydro-furan-3-yl)-benzamide] | < 10 µM | < 10 µM |
| Cc1onc(-c2ccccc2)c1C(=O)c1sc(NC2CCOC2=O)c(C#N)c1N (stereo not drawn) [Compound 1-134, 4-Amino-5-(5-methyl-3-phenyl-isoxazole-4-carbonyl)-2-(2-oxo-tetrahydro-furan-3-ylamino)-thiophene-3-carbonitrile] | < 10 µM | > 10 µM |
| CCOC(=O)c1cc(C(=O)c2sc(NCCN3CCCCC3)c(C#N)c2N)on1 [Compound 1-135, 5-[3-Amino-4-cyano-5-(2-piperidin-1-yl-ethylamino)-thiophene-2-carbonyl]-isoxazole-3-carboxylic acid ethyl ester] | < 10 µM | < 10 µM |
| CCOC(=O)c1cc(C(=O)c2sc(NC(=O)c3ccccc3C)c(C#N)c2N)on1 [Compound 1-136, 5-[3-Amino-4-cyano-5-(2-methyl-benzoylamino)-thiophene-2-carbonyl]-isoxazole-3-carboxylic acid ethyl ester] | > 10 µM | > 10 µM |
| CCOC(=O)c1cc(C(=O)c2sc(NC(CC(C)C)C(=O)OC)c(C#N)c2N)on1 (stereo not drawn) [Compound 1-137, 5-[3-Amino-4-cyano-5-(1-methoxycarbonyl-3-methyl-butylamino)-thiophene-2-carbonyl]-isoxazole-3-carboxylic acid ethyl ester] | < 10 µM | > 10 µM |
| CCOC(=O)c1cc(C(=O)c2sc(Nc3ccc(C(=O)NC4CCOC4=O)cc3)c(C#N)c2N)on1 (stereo not drawn) [Compound 1-138] | < 10 µM | < 10 µM |
| CCOC(=O)c1cc(C(=O)c2sc(NC3CCOC3=O)c(C#N)c2N)on1 (stereo not drawn) [Compound 1-140, 5-[3-Amino-4-cyano-5-(2-oxo-tetrahydro-furan-3-ylamino)-thiophene-2-carbonyl]-isoxazole-3-carboxylic acid ethyl ester] | < 10 µM | > 10 µM |
| COC(=O)C(CC(C)C)Nc1sc(C(=O)c2cc(-c3ccccc3)no2)c(N)c1C#N (stereo not drawn) [Compound 1-141, 2-[4-Amino-3-cyano-5-(3-phenyl-isoxazole-5-carbonyl)-thiophen-2-ylamino]-4-methyl-pentanoic acid methyl ester] | < 10 µM | < 10 µM |

| Structure (SMILES) | IC50 [1] | IC50 (PDE4D) |
| --- | --- | --- |
| N#Cc1c(Nc2ccccc2F)sc(C(=O)c2ccccn2)c1N [Compound 1-144, 4-Amino-2-(2-fluoro-phenylamino)-5-(pyridine-2-carbonyl)-thiophene-3-carbonitrile] | < 10 µM | < 10 µM |
| COc1ccc(Nc2sc(C(=O)c3ccccn3)c(N)c2C#N)cc1 [Compound 1-145, 4-Amino-2-(4-methoxy-phenylamino)-5-(pyridine-2-carbonyl)-thiophene-3-carbonitrile] | > 10 µM | > 10 µM |
| N#Cc1cccc(Nc2sc(C(=O)c3ccccn3)c(N)c2C#N)c1 [Compound 1-146, 4-Amino-2-(3-cyano-phenylamino)-5-(pyridine-2-carbonyl)-thiophene-3-carbonitrile] | < 10 µM | > 10 µM |
| N#Cc1c(Nc2ccc3c(c2)CCC3)sc(C(=O)c2ccccn2)c1N [Compound 1-147, 4-Amino-2-(indan-5-ylamino)-5-(pyridine-2-carbonyl)-thiophene-3-carbonitrile] | < 10 µM | < 10 µM |
| COC(=O)c1ccccc1Nc1sc(C(=O)c2ccccn2)c(N)c1C#N [Compound 1-148, 2-[4-Amino-3-cyano-5-(pyridine-2-carbonyl)-thiophen-2-ylamino]-benzoic acid methyl ester] | < 10 µM | < 10 µM |
| COc1ccc(CNc2sc(C(=O)c3ccccn3)c(N)c2C#N)cc1OC [Compound 1-149, 4-Amino-2-(3,4-dimethoxy-benzylamino)-5-(pyridine-2-carbonyl)-thiophene-3-carbonitrile] | < 10 µM | < 10 µM |
| N#Cc1c(Nc2ccc(Oc3ccccc3)cc2)sc(C(=O)c2ccccn2)c1N [Compound 1-150, 4-Amino-2-(4-phenoxy-phenylamino)-5-(pyridine-2-carbonyl)-thiophene-3-carbonitrile] | < 10 µM | > 10 µM |
| N#Cc1c(Nc2ccc(C(=O)NC3CCOC3=O)cc2)sc(C(=O)c2ccccn2)c1N (stereo not drawn) [Compound 1-151, 4-[4-Amino-3-cyano-5-(pyridine-2-carbonyl)-thiophen-2-ylamino]-N-(2-oxo-tetrahydro-furan-3-yl)-benzamide] | < 10 µM | > 10 µM |
| N#Cc1c(NC2CCOC2=O)sc(C(=O)c2ccccn2)c1N (stereo not drawn) [Compound 1-152, 4-Amino-2-(2-oxo-tetrahydro-furan-3-ylamino)-5-(pyridine-2-carbonyl)-thiophene-3-carbonitrile] | > 10 µM | > 10 µM |
| CCc1ccccc1Nc1sc(C(=O)c2ccccn2)c(N)c1C#N [Compound 1-153, 4-Amino-2-(2-ethyl-phenylamino)-5-(pyridine-2-carbonyl)-thiophene-3-carbonitrile] | < 10 µM | > 10 µM |
| COC(=O)C(CC(C)C)Nc1sc(C(=O)c2cc(OC)ccc2OC)c(N)c1C#N (stereo not drawn) [Compound 1-154, 2-[4-Amino-3-cyano-5-(2,5-dimethoxy-benzoyl)-thiophen-2-ylamino]-4-methyl-pentanoic acid methyl ester] | < 10 µM | > 10 µM |
| COC(=O)C(CCSC)Nc1sc(C(=O)c2cccc(Cl)c2)c(N)c1C#N (stereo not drawn) [Compound 1-156] | < 10 µM | < 10 µM |
| Cc1ccc(C(=O)c2sc(Nc3ccc4c(c3)CCC4)c(C#N)c2N)c(C)c1 [Compound 1-157, 4-Amino-5-(2,4-dimethyl-benzoyl)-2-(indan-5-ylamino)-thiophene-3-carbonitrile] | < 10 µM | < 10 µM |
| Cc1ccc(C(=O)c2sc(Nc3ccc(Oc4ccccc4)cc3)c(C#N)c2N)c(C)c1 [Compound 1-158, 4-Amino-5-(2,4-dimethyl-benzoyl)-2-(4-phenoxy-phenylamino)-thiophene-3-carbonitrile] | < 10 µM | > 10 µM |
| N#Cc1c(NC2CCOC2=O)sc(C(=O)c2csc3ccccc23)c1N (stereo not drawn) [Compound 1-159, 4-Amino-5-(benzo[b]thiophene-3-carbonyl)-2-(2-oxo-tetrahydro-furan-3-ylamino)-thiophene-3-carbonitrile] | < 10 µM | < 10 µM |
| Cc1ccccc1C(=O)Nc1sc(C(=O)c2ccccn2)c(N)c1C#N [Compound 1-160, N-[4-Amino-3-cyano-5-(pyridine-2-carbonyl)-thiophen-2-yl]-2-methyl-benzamide] | < 10 µM | > 10 µM |
